In article PMC10917278, “Structural insights into the modulation Of SOD1 aggregation By a fungal metabolite Phialomustin-B: Therapeutic potential in ALS” (PLOS ONE, 2024):
Entries after “also recorded” stand apart in the source; their conditions may differ.

Assays:
SOD1^WT = target: T1, SOD1^WT (Homo sapiens, UniProt P00441); test: Microscale thermophoresis (MST) binding assay, Cys-labeled SOD1^WT; settings: PBS buffer, protein 25 nM, PB 30.5 nM to 250 μM, 25 °C, SEM n = 3, read-out: binding affinity Kd
T1 construct: The full-length constructs of SOD1-wild type (aa: 1–145); His-tag (cleaved yes); made in house; host or cells: E. coli BL21 DE3
T1 sequence (P00441 whole entry): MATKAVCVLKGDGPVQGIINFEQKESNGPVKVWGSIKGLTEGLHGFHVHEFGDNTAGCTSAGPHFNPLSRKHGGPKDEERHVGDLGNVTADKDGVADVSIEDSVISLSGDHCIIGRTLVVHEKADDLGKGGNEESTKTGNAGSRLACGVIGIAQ
Protocol: To evaluate the binding efficiency of the ligand PB with SOD1^WT, a quantitative binding assay by microscale thermophoresis (MST) was performed. SOD1^WT was labeled at its cysteine residues to ensure non-interference with lysine-containing binding sites of PB (K9, K122, and K128). The cysteine label targeted free cysteines lying away from the ligand-binding site region. The fluorescently labeled SOD1^WT and 16 different concentrations of PB from 250 μM to 30.5 nM were prepared to evaluate the binding interactions between SOD1^WT and PB, as discussed in the methodology. […] The binding affinity was calculated based on the directional movement of molecules along a temperature gradient and the thermophoretic properties of the protein-ligand molecules.
Fig 4 MST interaction analysis of fluorescently labeled SOD1^WT against PB. The binding of PB to fluorescently Cys-labeled SOD1^WT is quantified in PBS buffer. The concentration of PB varied from 30.5 nM to 250 μM, while the protein SOD1^WT was kept constant at 25 nM. MST experiments were conducted at 20% LED excitation and medium MST power at 25 °C. […] Error bars indicate the standard error of the mean, SEM (n = 3).
(§1) Binding studies were performed for SOD1^WT and the ligands using microscale thermophoresis (MST). […]

SOD1^G10P = target: T2, SOD1^G10P (Homo sapiens, UniProt P00441, G11P); test: MST binding assay, site-specific mutant SOD1^G10P; settings: PBS buffer, mutant 25 nM, PB 30.5 nM to 250 μM, 25 °C, SEM n = 3, read-out: binding affinity Kd
T2 construct: His-tag (cleaved yes); made in house; host or cells: E. coli BL21-DE3
T2 sequence (P00441 whole entry G11P): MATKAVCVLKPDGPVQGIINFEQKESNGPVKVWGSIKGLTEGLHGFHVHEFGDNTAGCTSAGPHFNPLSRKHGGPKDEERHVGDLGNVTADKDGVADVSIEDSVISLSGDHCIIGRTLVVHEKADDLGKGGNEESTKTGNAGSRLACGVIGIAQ
Protocol: (§2) To further validate the binding of PB to SOD1, site-directed mutagenesis was performed for the interacting residues at the binding sites of PB. The point mutations generated on the SOD1 protein are K9F, G10P, L42R, and A123F. The MST assay was carried out on these mutants against PB (Fig 5). The dose-response curve with the highest signal-to-noise ratio, high response amplitude, and lowest error rate was selected for measuring the binding affinity (Kd) value. […] Binding at the electrostatic loop is affected majorly by mutating residues at A123 to phenylalanine and L42 to arginine. […] Taken together, the binding affinities of these mutants confirm the ligand bindings at these sites of SOD1 are specific.
(§3) Fig 5 MST interaction analysis of fluorescently labeled SOD1 mutants against PB. The binding of PB to fluorescently Cys-labeled SOD1- variants is quantified in PBS buffer. The concentration of PB varied from 30.5 nM to 250 μM, while the respective mutants were kept constant at 25 nM. MST experiments were conducted at 20% LED excitation and medium MST power at 25 °C. […] Error bars indicate the standard error of the mean, SEM (n = 3). […] The ligand PB is printed only in the titles of panels a-d, so the mutant names are used as the substance labels.
as §1

SOD1^A123F = target: T3, SOD1^A123F (Homo sapiens, UniProt P00441, A124F); test: MST binding assay, site-specific mutant SOD1^A123F; settings: PBS buffer, mutant 25 nM, PB 30.5 nM to 250 μM, 25 °C
T3 construct: His-tag (cleaved yes); made in house; host or cells: E. coli BL21-DE3
T3 sequence (P00441 whole entry A124F): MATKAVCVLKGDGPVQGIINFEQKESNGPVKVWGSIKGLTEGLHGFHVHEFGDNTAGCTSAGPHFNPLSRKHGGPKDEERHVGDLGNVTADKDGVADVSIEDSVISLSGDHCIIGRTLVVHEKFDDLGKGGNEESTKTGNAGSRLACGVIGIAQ
Protocol: as §2, §3, §1

For `CCCC[C@H](C)/C=C(C)/C=C/C(=O)O` [PB, (S, 2E, 4E)-4,6-dimethyldeca-2,4-dienoic acid], the Kd (SOD1^WT) was 3.7 ± 1.2 µM, the Kd (SOD1^G10P) was 15.9 ± 2.65 µM and the “binding affinity Kd” value (SOD1^A123F) was “very weak binding; also recorded: weak-binding”.
